Test results from publication PMC10067855, “Sialidases and fucosidases of Akkermansia muciniphila are crucial for growth on mucin and nutrient sharing with mucus-associated gut bacteria” (Nature Communications, 2023).

Experiments:
[1] = target: T1, AmGH181 (Akkermansia muciniphila, UniProt B2ULI1); set-up: gene Amuc_1547
T1 sequence (B2ULI1 23-595): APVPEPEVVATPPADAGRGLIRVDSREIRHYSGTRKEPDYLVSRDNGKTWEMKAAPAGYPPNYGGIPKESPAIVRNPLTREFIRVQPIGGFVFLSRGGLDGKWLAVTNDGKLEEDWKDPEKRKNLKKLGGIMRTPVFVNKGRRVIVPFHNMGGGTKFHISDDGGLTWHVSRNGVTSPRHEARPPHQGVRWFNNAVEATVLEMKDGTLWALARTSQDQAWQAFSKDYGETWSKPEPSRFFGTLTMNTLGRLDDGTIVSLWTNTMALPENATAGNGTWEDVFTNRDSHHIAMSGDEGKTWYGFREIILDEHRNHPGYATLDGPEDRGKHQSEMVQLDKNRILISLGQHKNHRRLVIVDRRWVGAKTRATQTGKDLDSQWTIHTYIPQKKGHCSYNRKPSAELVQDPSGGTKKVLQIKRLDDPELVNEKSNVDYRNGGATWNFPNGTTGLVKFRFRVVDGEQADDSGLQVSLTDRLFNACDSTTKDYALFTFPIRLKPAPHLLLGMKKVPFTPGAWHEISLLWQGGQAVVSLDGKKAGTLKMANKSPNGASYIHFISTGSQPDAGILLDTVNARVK

[2] = target: T1, AmGH181; test: X-ray crystal structure; also inhibition of 4MU-Neu5Ac hydrolysis; type: biochemical; set-up: gene Amuc_1547; mature peptide lacking the signal peptide
Excerpt: X-ray crystal structure; also inhibition of 4MU-Neu5Ac hydrolysis on AmGH181 | three structures of AmGH181: in ligand free form, bound with the transition-state inhibitor DANA

[3] = target: T2, AmGH33B (Akkermansia muciniphila, UniProt B2UN42); test: inhibition of 4MU-Neu5Ac hydrolysis, fluorescence; type: biochemical
T2 construct: gene Amuc_1835; mature peptide lacking the signal peptide
T2 sequence (B2UN42 19-674): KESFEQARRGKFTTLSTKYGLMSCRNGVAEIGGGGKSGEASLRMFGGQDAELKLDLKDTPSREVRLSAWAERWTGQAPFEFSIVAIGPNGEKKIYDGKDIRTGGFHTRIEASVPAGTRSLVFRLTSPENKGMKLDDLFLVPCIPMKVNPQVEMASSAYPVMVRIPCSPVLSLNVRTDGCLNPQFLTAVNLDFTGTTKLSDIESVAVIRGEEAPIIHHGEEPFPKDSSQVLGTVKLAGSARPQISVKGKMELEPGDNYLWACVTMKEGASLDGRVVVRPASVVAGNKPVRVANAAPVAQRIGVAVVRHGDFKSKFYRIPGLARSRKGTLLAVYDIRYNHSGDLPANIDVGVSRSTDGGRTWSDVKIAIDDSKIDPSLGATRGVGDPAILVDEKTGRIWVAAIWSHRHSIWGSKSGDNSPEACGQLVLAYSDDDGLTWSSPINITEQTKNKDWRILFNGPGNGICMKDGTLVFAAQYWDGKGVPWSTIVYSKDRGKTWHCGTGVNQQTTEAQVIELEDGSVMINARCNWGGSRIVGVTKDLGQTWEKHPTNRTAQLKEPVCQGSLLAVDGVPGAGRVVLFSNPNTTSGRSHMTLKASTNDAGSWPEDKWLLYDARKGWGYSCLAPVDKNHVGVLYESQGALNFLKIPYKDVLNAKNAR

[4] = target: T3, AmGH33A (Akkermansia muciniphila, UniProt B2UPI5); test: inhibition of 4MU-Neu5Ac hydrolysis, fluorescence; type: biochemical
T3 construct: gene Amuc_0625; mature peptide lacking the signal peptide
T3 sequence (B2UPI5 39-419): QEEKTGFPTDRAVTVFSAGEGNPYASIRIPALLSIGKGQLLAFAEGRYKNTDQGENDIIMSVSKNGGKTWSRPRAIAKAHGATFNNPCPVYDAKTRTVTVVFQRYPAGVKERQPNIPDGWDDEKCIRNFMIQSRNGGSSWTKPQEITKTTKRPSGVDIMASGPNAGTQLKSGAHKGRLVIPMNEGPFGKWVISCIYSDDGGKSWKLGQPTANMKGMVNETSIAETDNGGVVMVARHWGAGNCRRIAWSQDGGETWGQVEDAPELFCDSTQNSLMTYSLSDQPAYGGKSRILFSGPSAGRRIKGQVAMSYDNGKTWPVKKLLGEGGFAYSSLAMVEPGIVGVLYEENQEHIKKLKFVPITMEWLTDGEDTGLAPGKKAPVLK

| Structure (SMILES) | X-ray crystal structure (ternary with DANA) [1] | IC50 [2] [µM] | IC50 [3] [µM] | IC50 [4] [µM] |
| --- | --- | --- | --- | --- |
| CC(=O)N[C@H]1C(O)O[C@H](CO)[C@H](O)[C@@H]1O[C@@H]1O[C@H](CO)[C@H](O)[C@H](O)[C@H]1O (stereo partly shown) [GNB, Galacto-N-biose] | bound to both the T-antigen disaccharide (GNB) and DANA, which provides a mimic for a transition state-like substrate complex | – | – | – |
| CC(=O)N[C@H]1[C@H]([C@H](O)[C@H](O)CO)OC(C(=O)O)=C[C@@H]1O [DANA, N-Acetyl-2,3-dehydro-2-deoxyneuraminic acid] | – | < 200 | < 200 | < 200 |
